Measurements reported in patent publication US5053070A, “Pyrimidine derivatives, preparation processes thereof, herbicide containing the same, and herbicidal compositions containing the same along with other active ingredient” (Mitsui Toatsu Chemicals, Incorporated, priority 1988, dated 1991).

Assays:
[1] = tested on: rice; experiment: Treatment of soil under submerged condition, post-emergence (Test 5), injury; assay type: in vivo; conditions: 30 g ai/a granule, 30 days later
Description: (§1) 1/5000-are Wagner pots were filled with soil. Seeds or tubers of barnyardgrass, Monochoria vaginalis, bulrush, Sagittaria pygmaea, Cyperus serroylnus and Eleocharis kuroguwai were seeded or planted under submerged condition. Two pairs of rice seedlings (2-3 leaf stage), which had been reared in advance, were transplanted to each pot and were allowed to grow in a green house. Each pair consisted of two rice seedlings. When the barnyardgrass grew to two-leaf stage, each pot was treated with a granule which had been prepared by processing a predetermined amount of the test composition in accordance with a similar method to the method described in Formulation Example 9. The state of emergence of weeds and the state of injury of rice were observed 30 days later.
(§2) In the table, the degrees of damages of the test plants and the degrees of injury of the rice are shown in a similar manner to Example 2.

[2] = tested on: soybean; experiment: Upland foliar application test (Test 3), crop injury; assay type: in vivo; conditions: 30 g ai/a, foliar spray at 2-3 leaves, 30th day
Description: (§3) Resin-made 1/10000-are pots were filled with the soil of an upland field. Redroot pigweed, common lambsquarters, foxtail meadow, johnsongrass, barnyardgrass, green foxtail, large crabgrass, soybean, peanut and cotton were separately seeded and were allowed to germinate in a green house. When each plant grew to the stage of 2-3 leaves, an emulsion formulated from a predetermined amount of each test compound in a similar manner to the method described in Formulation Example 11 was diluted with water to a predetermined dilution rate and then sprayed at an application rate equal to 5 l per are onto the foliage of each plant by means of a pressure-operated ULV (ultra low volume) sprayer. Influence to the crops and weeds were observed on the 30th day after the spray of the herbicides. The results are shown in Table 4 in which the degree of damages of each test plant and the degree of injury to each crop are shown in a similar manner to Test 2.

[3] = tested on: peanut; experiment: as above; assay type: in vivo; conditions: 30 g ai/a, foliar spray at 2-3 leaves, 30th day
Description: as §3

[4] = tested on: cotton; experiment: as above; assay type: in vivo; conditions: 30 g ai/a, foliar spray at 2-3 leaves, 30th day
Description: as §3

[5] = tested on: rice; experiment: Treatment of soil under submerged condition, pre-emergence (Test 4), injury; assay type: in vivo; conditions: 30 g ai/a granule, 30 days later
Description: as §1, with “seroylnus” for “serroylnus”, “germinate” for “grow”, “One day later (before emergence of weeds),” for “When the barnyardgrass grew to two-leaf stage,”
In the table, the degrees of damages of the test plants and the degrees of injury of rice are shown in a similar manner to Example 2.

[6] = tested on: redroot pigweed; experiment: Upland foliar application test (Test 3); assay type: in vivo; conditions: 30 g ai/a, foliar spray at 2-3 leaves, 30th day
Description: as §3

[7] = tested on: foxtail meadow; experiment: Upland foliar application test (Test 3); assay type: in vivo; conditions: 30 g ai/a, foliar spray at 2-3 leaves, 30th day
Description: as §3

[8] = tested on: johnsongrass; experiment: Upland foliar application test (Test 3); assay type: in vivo; conditions: 30 g ai/a, foliar spray at 2-3 leaves, 30th day
Description: as §3

[9] = tested on: common lambsquarters; experiment: Upland foliar application test (Test 3); assay type: in vivo; conditions: 30 g ai/a, foliar spray at 2-3 leaves, 30th day
Description: as §3

[10] = tested on: barnyardgrass; experiment: Upland foliar application test (Test 3); assay type: in vivo; conditions: 30 g ai/a, foliar spray at 2-3 leaves, 30th day
Description: as §3

[11] = tested on: green foxtail; experiment: Upland foliar application test (Test 3); assay type: in vivo; conditions: 30 g ai/a, foliar spray at 2-3 leaves, 30th day
Description: as §3

[12] = tested on: large crabgrass; experiment: Upland foliar application test (Test 3); assay type: in vivo; conditions: 30 g ai/a, foliar spray at 2-3 leaves, 30th day
Description: as §3

[13] = tested on: ALS (acetolactate syntase); experiment: ALS enzyme assay (Test 1); assay type: biochemical, pea; conditions: 1,000 ppm (0.5 mg/0.5 ml)
Description: (§4) To determine the selectivity in enzyme level between crops and weeds, and ALS enzyme assay was conducted using pea as a representative of broadleaf crops and barnyardgrass as a representative of narrowleaf weeds.
(§5) After seeds of pea and barnyardgrass were allowed to germinate at 25° C. for 8-14 days in a dark place, partially-purified suspensions (Suspensions A) of acetolactate syntase were separately obtained from seedlings in accordance with the method described in the literature, Plant Physiology, 75, 827-831.
(§6) In a test tube, 0.5 mg of one of test compounds was weighed, followed by the addition of 0.15 ml of a 20 mM K2 HPO4 solution and 0.25 ml of a reaction substrate medium which consisted of 40 mM of K2 HPO4, 40 mM of sodium pyruvate, 1 mM of TPP, 1 mM of MgCl2 and 20 μM of FAD so that 0.4 ml of a reaction solution (Solution B) was prepared. Added to 0.4 ml of Solution B was 0.1 ml of suspension A. After the resultant mixture was shaken for 1 hour in a thermostat water bath controlled at 30° C., 50 μl of 6N sulfuric acid were added to terminate the reaction.
(§7) Next, the reaction-terminated liquid mixture was transferred into a thermostat water bath controlled at 60° C. and was heated for 15 minutes. Thereafter, 0.5 ml of a 0.5% creatine solution and 0.5 ml of a 5% alkaline α-naphthol solution were added, and the resultant mixture was maintained at 60° C. for 15 minutes. As a result, the test solution developed a pink-red color. After the above operation, the absorbance of the test solution at 525 nm was measured by a spectrophotometer (Absorbance 1 of Test Compound).
(§8) On the other hand, the absorbance (Absorbance 2 of Blank) of a solution obtained by subjecting a portion of Solution B, said portion being free of the test compound, to the above operation and the absorbance (Absorbance 3 of sulfuric acid terminated) of another solution obtained by subjecting another portion of Solution B, said portion containing 50 μl of 6N sulfuric acid as a test compound, were measured at the same time. Based on the values of the respective measurements, the enzyme assay at 1,000 ppm (0.5 mg/0.5 ml) of each compound was determined. [formula]

[14] = tested on: ALS (acetolactate syntase); experiment: ALS enzyme assay (Test 1); assay type: biochemical, barnyardgrass; conditions: 1,000 ppm (0.5 mg/0.5 ml)
Description: as §4, §5, §6, §7, §8

[15] = tested on: Sagittaria pygmaea; experiment: Treatment of soil under submerged condition, post-emergence (Test 5); assay type: in vivo; conditions: 30 g ai/a granule, 30 days later
Description: as §1, §2

[16] = tested on: bulrush; experiment: as above; assay type: in vivo; conditions: 30 g ai/a granule, 30 days later
Description: as §1, §2

[17] = tested on: barnyardgrass; experiment: as above; assay type: in vivo; conditions: 30 g ai/a granule, post-emergence (barnyardgrass two-leaf stage), 30 days later
Description: as §1, §2

COc1cc(OC)nc(Oc2ccccc2C=NOCC=Cc2ccccc2Br)n1 [compound 40]
4 (6-10 (Severe damages)): Herbicidal effects Common lambsquarters [9] | Herbicidal effects Green foxtail [11] | Herbicidal effects Large crabgrass [12] | Herbicidal effects Sagittaria Pygmaea [15] | Herbicidal effects Bulrush [16]
1 (71-90 (Slight damages)): Injury Rice [1]
0 (91-100 (No damages)): Injury Soybean [2] | Injury Peanut [3] | Injury Cotton [4] | Injury Rice [5]
0%: Inhibitory activity (%) Pea [13]
5 (0-5 (Death)): Herbicidal effects Redroot pigweed [6] | Herbicidal effects Foxtail meadow [7] | Herbicidal effects Johnsongrass [8] | Herbicidal effects Barnyardgrass [10] | Herbicidal effects Barnyardgrass [17]
94%: Inhibitory activity (%) Barnyardgrass [14]

COc1cc(OC)nc(Oc2ccccc2C=NOCC=Cc2ccc(C)cc2)n1 [compound 36]
92%: Inhibitory activity (%) Barnyardgrass [14]
4 (6-10 (Severe damages)): Herbicidal effects Redroot pigweed [6] | Herbicidal effects Common lambsquarters [9] | Herbicidal effects Sagittaria Pygmaea [15]
0%: Inhibitory activity (%) Pea [13]
5 (0-5 (Death)): Herbicidal effects Foxtail meadow [7] | Herbicidal effects Johnsongrass [8] | Herbicidal effects Barnyardgrass [10] | Herbicidal effects Green foxtail [11] | Herbicidal effects Large crabgrass [12] | Herbicidal effects Bulrush [16] | Herbicidal effects Barnyardgrass [17]
0 (91-100 (No damages)): Injury Soybean [2] | Injury Peanut [3] | Injury Cotton [4] | Injury Rice [5]
1 (71-90 (Slight damages)): Injury Rice [1]

COc1cc(OC)nc(Oc2ccccc2C=NOCC=Cc2ccccc2Cl)n1 [Compound No. 27]
0 (91-100 (No damages)): Injury Rice [1] | Injury Soybean [2] | Injury Peanut [3] | Injury Cotton [4] | Injury Rice [5]
5 (0-5 (Death)): Herbicidal effects Redroot pigweed [6] | Herbicidal effects Foxtail meadow [7] | Herbicidal effects Johnsongrass [8] | Herbicidal effects Green foxtail [11] | Herbicidal effects Large crabgrass [12] | Herbicidal effects Barnyardgrass [17]
4 (6-10 (Severe damages)): Herbicidal effects Common lambsquarters [9] | Herbicidal effects Barnyardgrass [10] | Herbicidal effects Sagittaria Pygmaea [15] | Herbicidal effects Bulrush [16]
100%: Inhibitory activity (%) Barnyardgrass [14]
12%: Inhibitory activity (%) Pea [13]

COc1cc(OC)nc(Oc2ccccc2C=NOCC=Cc2ccccc2C)n1 [Compound No. 39]
0 (91-100 (No damages)): Injury Rice [1] | Injury Soybean [2] | Injury Peanut [3] | Injury Cotton [4]
4 (6-10 (Severe damages)): Herbicidal effects Common lambsquarters [9] | Herbicidal effects Sagittaria Pygmaea [15] | Herbicidal effects Bulrush [16]
5 (0-5 (Death)): Herbicidal effects Redroot pigweed [6] | Herbicidal effects Foxtail meadow [7] | Herbicidal effects Johnsongrass [8] | Herbicidal effects Barnyardgrass [10] | Herbicidal effects Green foxtail [11] | Herbicidal effects Large crabgrass [12] | Herbicidal effects Barnyardgrass [17]
0%: Inhibitory activity (%) Pea [13]
1 (71-90 (Slight damages)): Injury Rice [5]
92%: Inhibitory activity (%) Barnyardgrass [14]

COC(=O)c1ccccc1Oc1nc(OC)cc(OC)n1 [A, reference compound]
72%: Inhibitory activity (%) Pea [13]
73%: Inhibitory activity (%) Barnyardgrass [14]
5 (0-5 (Death)): Injury Rice [1] | Injury Soybean [2] | Injury Peanut [3] | Injury Cotton [4] | Injury Rice [5] | Herbicidal effects Redroot pigweed [6] | Herbicidal effects Foxtail meadow [7] | Herbicidal effects Johnsongrass [8] | Herbicidal effects Barnyardgrass [10] | Herbicidal effects Green foxtail [11] | Herbicidal effects Large crabgrass [12] | Herbicidal effects Barnyardgrass [17]
4 (6-10 (Severe damages)): Herbicidal effects Common lambsquarters [9] | Herbicidal effects Sagittaria Pygmaea [15] | Herbicidal effects Bulrush [16]
